# Assay results from patent publication US8017321B2, “Gefitinib sensitivity-related gene expression and products and methods related thereto” (The Regents of the University of Colorado, A Body Corporate, priority 2005, dated 2011).
# Key:
# [1] = test system: A549 NSCLC xenografts; test: Athymic nude mice bearing human NSCLC xenografts (FIG. 5); format: in vivo
# From the text: FIG. 5 is a line graph showing the effects of gefitinib on A549 NSCLC xenografts.
# [2] = test system: NSCLC; settings: chemo-refractory advanced stage NSCLC, phase II clinical trials; cited from earlier work
structure (smiles),measurement,setting,value
"COc1cc2ncnc(Nc3ccc(F)c(Cl)c3)c2cc1OCCCN1CCOCC1 [ZD 1839, gefitinib]",tumor growth of NSCLC xenografts after treatment,[1]; listed as ZD1839,Growth delay was evident
same,tumor growth of NSCLC xenografts after treatment,[1]; listed as gefitinib,inhibitory effect
same,patients responding to treatment,[2],11-20%
